Assay results taken from patent US4157347A, “N-cyano isothioureas” (Bristol-Myers Company, priority 1978, dated 1979).
“Also recorded” adds a separate entry of the source. Read-outs that look alike come from different tables or passages of the source. Values belong to the compound of their own block, whether it stands above or below them.

Assays:
[1] = target: T1, histamine H2-receptors (Cavia porcellus, UniProt P47747); experiment: Histamine H2-receptor antagonism, isolated guinea pig right atria assay; assay type: cell-based; conditions: for Histamine ED50 With 95% Confidence Limits: histamine ED50 in presence of test compound 1 × 10^-5 M, 30 min incubation; for Concentration-Response Curve Displacement Factor: test compound 1 × 10^-5 M
T1 construct: The spontaneously beating right atrium was dissected free from other tissues; from tissue; host or cells: isolated spontaneously beating right atrium of male Hartley guinea pigs
T1 sequence (P47747 whole entry): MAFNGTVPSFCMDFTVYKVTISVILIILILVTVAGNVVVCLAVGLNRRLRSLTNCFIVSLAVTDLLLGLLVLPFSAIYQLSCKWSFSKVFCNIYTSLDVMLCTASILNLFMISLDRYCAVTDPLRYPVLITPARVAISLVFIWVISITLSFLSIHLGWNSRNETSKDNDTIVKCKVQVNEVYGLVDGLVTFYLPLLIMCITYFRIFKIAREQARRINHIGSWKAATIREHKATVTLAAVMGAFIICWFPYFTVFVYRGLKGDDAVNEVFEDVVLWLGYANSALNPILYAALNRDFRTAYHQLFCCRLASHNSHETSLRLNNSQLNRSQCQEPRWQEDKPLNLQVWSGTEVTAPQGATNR
Protocol: Subsequent investigations by Hughes and Coret, Proc. Soc. […] Black et al., Agents and Actions, 3, 133 (1973) and Brimblecombe et al., Fed. […] The present comparative studies were carried out using a modification of the procedure reported by Reinhardt et al., Agents and Actions, 4, 217 (1974).
Male Hartley strain guinea pigs (350-450 gm.) were sacrificed by a blow on the head. The heart was excised and placed in a Petri dish of oxygenated (95% O2, 5% CO2) modified Krebs solution (g./liter: NaCl 6.6, KCl 0.35, MgSO4.7 H2 O 0.295, KH2 PO4 0.162, CaCl2 0.238, NaHCO3 2.1 and dextrose 2.09). The spontaneously beating right atrium was dissected free from other tissues and a silk thread (4-0) attached to each end. The atrium was suspended in a 20 ml. muscle chamber containing oxygenated modified Krebs solution maintained at 32° C. Atrial contractions were recorded isometrically by means of a Grass FT 0.03 force displacement transducer and recordings of contractile force and rate were made with a Beckman RP Dynograph.
A resting tension of 1 g. was applied to the atrium and it was allowed to equilibrate for 1 hour.
Concentration-response curve displacement factors were calculated as follows: [formula] The factor obtained for BL-5641 was then expressed as a ratio of the factor obtained for cimetidine. [formula]

[2] = system: histamine-induced gastric acid output; experiment: Gastric antisecretory activity in the gastric fistula dog (histamine-induced gastric acid output); assay type: in vivo, dog (beagle)
Protocol: Determination of Gastric Antisecretory Activity in the Gastric Fistula Dog
Thomas type [Thomas, J. E., Proc. Soc. exp. Biol. Med., 46, 260 (1941)] stainless steel cannulae are inserted into the stomachs of beagle dogs (10-12 kg.) just orad to the pyloric gland area near the greater curvature to provide a chronic gastric fistula. Animals are allowed to recover for at least two months before any testing is done. Dogs are fasted overnight (~18 hours) with water ad lib prior to each experiment. The dogs are placed in a sling and an eight inch inside needle catheter (C. R. Baird, Inc.) with a two inch 17 gauge needle is inserted into a leg vein for purposes of drug administration. Gastric secretions are collected every 15 minutes by gravity drainage from the opened cannula. […] A modification of the procedure described by Grossman and Konturek, Gastroenterology, 66, 517 (1974) was followed. […] Each 15 minute sample of gastric juice is measured to the nearest 0.5 ml. and titratable acidity against 0.02 N NaOH (endpoint pH 7.0) is measured with an Autoburet and pH meter (radiometer). The percent inhibition of acid output is calculated as described in the pylorus ligated rat procedure.

[3] = system: gastric acid output; experiment: Gastric antisecretory activity in the two hour pylorus ligated (Shay) rat; assay type: in vivo, rat (male Long Evans)
From the text: Determination of Gastric Antisecretory Activity in the Two Hour Pylorus Ligated (Shay) Rat
The pyloric ligation procedure in the rat was designed by Shay et al., Gastroenterology, 5,53 (1945) for the study of perforating gastric ulcers; however, as the method became known, it was also employed as a means of studying rat gastric secretion, Shay et al., Gastroenterology, 26, 906 (1954), Brodie, D. A., Am. J. Dig. Dis., 11, 231 (1966). A modification of this procedure is presently used to evaluate compounds for gastric antisecretory activity.
Male Long Evans rats, 280-300 gm., are used. The animals are placed in individual cages and fasted for 24 hours with free access to water. Under ether anesthesia, the stomach is reached through a midline incision, and a cotton-thread ligature is placed around the pylorus. After wound closure, ether administration is stopped and either BL-5641, cimetidine or vehicle are administered intraperitoneally in a volume of […]. BL-5641 and cimetidine are solubilized with one equivalent of HCl and brought to the proper volume with water. The animals are returned to their cages from which the water bottles have been removed and two hours later are sacrificed with ether. The stomach is removed and the two hour gastric collection is drained into a graduated test tube for volume determination. Titratable acidity is measured by titrating a one ml. sample to pH 7.0 with 0.02 N NaOH, using an Autoburet and an electrometric pH meter (Radiometer). Titratable acid output is calculated in microequivalents by multiplying the volume in milliliters by the acid concentration in milliequivalents per liter. The percent inhibition of acid output is calculated as follows [formula]

[4] = system: H2 receptors; conditions: in words; cited from earlier work
[5] = system: peptic ulcer disease; conditions: clinical evaluation, in words; cited from earlier work
[6] = in words; cited from earlier work
[7] = clinical, in words; cited from earlier work
[8] = 0.75 μM/kg. iv, 15 min, dog 23553, N=1
[9] = 0.75 μM/kg. iv, 30 min, dog 23553, N=1
[10] = 0.75 μM/kg. iv, 45 min, dog 23553, N=1
[11] = 0.75 μM/kg. iv, 60 min, dog 23553, N=1
[12] = 0.75 μM/kg. iv, 75 min, dog 23553, N=1
[13] = 0.75 μM/kg. iv, 90 min, dog 23553, N=1
[14] = 0.75 μM/kg. iv, 105 min, dog 23553, N=1
[15] = 0.75 μM/kg. iv, 120 min, dog 23553, N=1
[16] = 1.5 μM/kg. iv, 15 min, dog 24895, N=1
[17] = 1.5 μM/kg. iv, 30 min, dog 24895, N=1
[18] = 1.5 μM/kg. iv, 45 min, dog 24895, N=1
[19] = 1.5 μM/kg. iv, 60 min, dog 24895, N=1
[20] = 1.5 μM/kg. iv, 75 min, dog 24895, N=1
[21] = 1.5 μM/kg. iv, 90 min, dog 24895, N=1
[22] = 1.5 μM/kg. iv, 105 min, dog 24895, N=1
[23] = 1.5 μM/kg. iv, 120 min, dog 24895, N=1
[24] = 3 μM/kg. iv, 15 min, dog 23606, N=1
[25] = 3 μM/kg. iv, 30 min, dog 23606, N=1
[26] = 3 μM/kg. iv, 45 min, dog 23606, N=1
[27] = 3 μM/kg. iv, 60 min, dog 23606, N=1
[28] = 3 μM/kg. iv, 75 min, dog 23606, N=1
[29] = 3 μM/kg. iv, 90 min, dog 23606, N=1
[30] = 3 μM/kg. iv, 105 min, dog 23606, N=1
[31] = 3 μM/kg. iv, 120 min, dog 23606, N=1
[32] = 6 μM/kg. iv, 15 min, dog 22619, N=1
[33] = 6 μM/kg. iv, 30 min, dog 22619, N=1
[34] = 6 μM/kg. iv, 45 min, dog 22619, N=1
[35] = 6 μM/kg. iv, 60 min, dog 22619, N=1
[36] = 6 μM/kg. iv, 75 min, dog 22619, N=1
[37] = 6 μM/kg. iv, 90 min, dog 22619, N=1
[38] = 6 μM/kg. iv, 105 min, dog 22619, N=1
[39] = 6 μM/kg. iv, 120 min, dog 22619, N=1
[40] = 12 μM/kg. iv, 15 min, dog 24136, N=1
[41] = 12 μM/kg. iv, 30 min, dog 24136, N=1
[42] = 12 μM/kg. iv, 45 min, dog 24136, N=1
[43] = 12 μM/kg. iv, 60 min, dog 24136, N=1
[44] = 12 μM/kg. iv, 75 min, dog 24136, N=1
[45] = 12 μM/kg. iv, 90 min, dog 24136, N=1
[46] = 12 μM/kg. iv, 105 min, dog 24136, N=1
[47] = 12 μM/kg. iv, 120 min, dog 24136, N=1
[48] = 10 μMole/kg. ip, 2 h (BL-5641 2.76 mg/kg; cimetidine 2.5 mg/kg)
[49] = 20 μMole/kg. ip, 2 h (BL-5641 5.53 mg/kg; cimetidine 5 mg/kg)
[50] = 40 μMole/kg. ip, 2 h (BL-5641 11.1 mg/kg; cimetidine 10 mg/kg)

- Histamine ED50 With 95% Confidence Limits [1]: 12.44 µg/mL
- histamine H2-receptor antagonist potency vs cimetidine ([1]; isolated guinea pig atria, in words): more potent than cimetidine
- Concentration-Response Curve Displacement Factor [1]: 32.7
SMILES: C#CCN=C(NC#N)NCCSCc1[nH]cnc1C [BL-5641, N-Cyano-N'-{2-[(4-methyl-5-imidazolyl)methylthio]ethyl}-N"-propargylguanidine]
- % Inhibition Acid Output [2, 8]: 51%
- % Inhibition Acid Output [2, 9]: 38%
- % Inhibition Acid Output [2, 10]: 28%
- % Inhibition Acid Output [2, 11]: 28%
- % Inhibition Acid Output [2, 12]: 31%
- % Inhibition Acid Output [2, 13]: 43%
- % Inhibition Acid Output [2, 14]: 42%
- % Inhibition Acid Output [2, 15]: 46%
- % Inhibition Acid Output [2, 16]: 82%
- % Inhibition Acid Output [2, 17]: 72%
- % Inhibition Acid Output [2, 18]: 53%
- % Inhibition Acid Output [2, 19]: 49%
- % Inhibition Acid Output [2, 20]: 33%
- % Inhibition Acid Output [2, 21]: 7%
- % Inhibition Acid Output [2, 22]: 0%
- % Inhibition Acid Output [2, 23]: 0%
- % Inhibition Acid Output [2, 24]: 60%
- % Inhibition Acid Output [2, 25]: 59%
- % Inhibition Acid Output [2, 26]: 36%
- % Inhibition Acid Output [2, 27]: 34%
- % Inhibition Acid Output [2, 28]: 32%
- % Inhibition Acid Output [2, 29]: 42%
- % Inhibition Acid Output [2, 30]: 24%
- % Inhibition Acid Output [2, 31]: 0%
- % Inhibition Acid Output [2, 32]: 82%
- % Inhibition Acid Output [2, 33]: 99%
- % Inhibition Acid Output [2, 34]: 99%
- % Inhibition Acid Output [2, 35]: 95%
- % Inhibition Acid Output [2, 36]: 78%
- % Inhibition Acid Output [2, 37]: 76%
- % Inhibition Acid Output [2, 38]: 52%
- % Inhibition Acid Output [2, 39]: 53%
- % Inhibition Acid Output [2, 40]: 66%
- % Inhibition Acid Output [2, 41]: 99%
- % Inhibition Acid Output [2, 42]: 99%
- % Inhibition Acid Output [2, 43]: 99%
- % Inhibition Acid Output [2, 44]: 99%
- % Inhibition Acid Output [2, 45]: 93%
- % Inhibition Acid Output [2, 46]: 91%
- % Inhibition Acid Output [2, 47]: 73%
- duration of activity vs cimetidine ([2]; equal (equimolar) doses iv, in words): of longer duration with BL-5641 than with cimetidine; also recorded: longer duration of activity than cimetidine at equal doses
- degree of inhibition of gastric acid output vs cimetidine ([2]; equimolar doses iv, in words): consistently greater
- inhibitor of gastric acid output, potency vs cimetidine ([2]; iv, in words): more potent and/or longer acting than cimetidine; also recorded: more potent than cimetidine
- onset of effect on gastric acid output ([2]; iv, in words): immediate inhibitory effect on gastric acid output
- % Inhibition of Acid Output [3, 48]: 37%
- % Inhibition of Acid Output [3, 49]: 61%
- % Inhibition of Acid Output [3, 50]: 80%
- ED50 ([3]; Rattus norvegicus, ip, 2 h; read-out: ED50 (inhibition of acid output)): ~11 µmol/kg
- potency in inhibition of gastric acid output vs cimetidine ([3]; in words): at least as potent as cimetidine; also recorded: more potent than cimetidine

SMILES: CNC(=NC#N)NCCSCc1[nH]cnc1C [Cimetidine]
- H2 antagonist potency/effectiveness [4]: as effective an H2 antagonist as metiamide
- Activity Ratio [1]: 1.0
- Histamine ED50 With 95% Confidence Limits [1]: 1.39 µg/mL
- Concentration-Response Curve Displacement Factor [1]: 6.6
- % Inhibition Acid Output [2, 8]: 50%
- % Inhibition Acid Output [2, 9]: 10%
- % Inhibition Acid Output [2, 10]: 24%
- % Inhibition Acid Output [2, 11]: 17%
- % Inhibition Acid Output [2, 12]: 35%
- % Inhibition Acid Output [2, 13]: 27%
- % Inhibition Acid Output [2, 14]: 25%
- % Inhibition Acid Output [2, 15]: 19%
- % Inhibition Acid Output [2, 16]: 73%
- % Inhibition Acid Output [2, 17]: 57%
- % Inhibition Acid Output [2, 18]: 60%
- % Inhibition Acid Output [2, 19]: 29%
- % Inhibition Acid Output [2, 20]: 0%
- % Inhibition Acid Output [2, 21]: 18%
- % Inhibition Acid Output [2, 22]: 0%
- % Inhibition Acid Output [2, 23]: 0%
- % Inhibition Acid Output [2, 24]: 43%
- % Inhibition Acid Output [2, 25]: 27%
- % Inhibition Acid Output [2, 26]: 15%
- % Inhibition Acid Output [2, 27]: 0%
- % Inhibition Acid Output [2, 28]: 17%
- % Inhibition Acid Output [2, 29]: 38%
- % Inhibition Acid Output [2, 30]: 8%
- % Inhibition Acid Output [2, 31]: 0%
- % Inhibition Acid Output [2, 32]: 84%
- % Inhibition Acid Output [2, 33]: 96%
- % Inhibition Acid Output [2, 34]: 73%
- % Inhibition Acid Output [2, 35]: 67%
- % Inhibition Acid Output [2, 36]: 65%
- % Inhibition Acid Output [2, 37]: 54%
- % Inhibition Acid Output [2, 38]: 40%
- % Inhibition Acid Output [2, 39]: 32%
- % Inhibition Acid Output [2, 40]: 63%
- % Inhibition Acid Output [2, 41]: 99%
- % Inhibition Acid Output [2, 42]: 89%
- % Inhibition Acid Output [2, 43]: 76%
- % Inhibition Acid Output [2, 44]: 54%
- % Inhibition Acid Output [2, 45]: 48%
- % Inhibition Acid Output [2, 46]: 41%
- % Inhibition Acid Output [2, 47]: 14%
- onset of effect on gastric acid output ([2]; iv, in words): immediate inhibitory effect on gastric acid output
- therapeutic effect in peptic ulcer disease [5]: effective therapeutic agent in the treatment of peptic ulcer disease
- half-life [6]: relatively short
- toxicity (agranulocytosis) [7]: without producing agranulocytosis
- % Inhibition of Acid Output ([3]; 5 μMole/kg. ip, 2 h (cimetidine 1.25 mg/kg)): 34%
- % Inhibition of Acid Output [3, 48]: 40%
- % Inhibition of Acid Output [3, 49]: 60%
- % Inhibition of Acid Output [3, 50]: 66%
- ED50 ([3]; Rattus norvegicus, ip, 2 h, read-out: ED50 (inhibition of acid output)): ~14 µmol/kg
